Results taken from patent US10695396B2, “Malignant tumor target peptide” (NATIONAL INSTITUTE OF ADVANCED INDUSTRIAL SCIENCE AND …, priority 2016, dated 2020).
Read-outs that look alike come from different tables or passages of the source. Square brackets hold non-standard residues; d marks the D form. Peptide text beside a SMILES is read from it.

Experiments:
[1] = solubility and stability of IF7 (dosage form observations); type: physicochemical
Experimental: That is, IF7 peptide is protease sensitive and is susceptible to degradation. Indeed, in an experiment including intravenous administration of A488-IF7 to healthy mouse, the fluorescence signal of peripheral blood almost disappeared in about 1 hour (FIG. 5). […] In addition, IF7 has high hydrophobicity and causes difficulty in dosage form such as the need for addition of a surfactant after dissolution in DMSO, in an attempt to avoid precipitation when a compound bound with an anticancer drug is intravenously administered.

Anxa1 = molecular target: T1, Anxa1 (Homo sapiens, UniProt P04083); test: intermolecular interaction with Anxa1 measured by the QCM method; type: binding
T1 construct: human recombinant Anxa1 protein consisting of 346 amino acid residues; purchased ATGen Corporation (Seongnam-si, South Korea)
T1 sequence (P04083 1-346): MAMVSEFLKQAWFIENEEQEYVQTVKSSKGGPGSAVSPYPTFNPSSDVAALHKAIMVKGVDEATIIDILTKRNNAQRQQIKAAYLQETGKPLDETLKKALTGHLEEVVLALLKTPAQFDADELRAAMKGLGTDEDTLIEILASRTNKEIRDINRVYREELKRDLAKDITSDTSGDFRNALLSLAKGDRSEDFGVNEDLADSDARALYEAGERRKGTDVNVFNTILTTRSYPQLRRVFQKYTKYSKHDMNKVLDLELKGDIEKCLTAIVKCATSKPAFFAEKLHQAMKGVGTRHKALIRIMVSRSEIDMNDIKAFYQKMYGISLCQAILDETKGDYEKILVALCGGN
Experimental: As for the peptides of the sequences of LRFPTVL (SEQ ID NO: 13), SPTSLLF (SEQ ID NO: 14), MPTLTFR (SEQ ID NO: 15) and LLSWPSA (SEQ ID NO: 17) with high emergence frequency besides the TIT7 sequence (SEQ ID NO: 12) described in Example 1, similar to the dTIT7 peptide, peptides (dLRF7, dSPT7, dMPT7 and dLLS7 peptides) composed of D-form amino acids were synthesized and the intermolecular interaction with Anxa1 was measured for each of them by the following method.
The sensor chip was washed twice with piranha solution for 5 min and then immersed overnight in a solution of 0.9 mM hydroxy-EG3-undecanethiol (Dojindo) and 0.1 mM amino-EG6-undecanethiol (Dojindo). After washing with water, the chip was treated with 1 mM GMBS (Dojindo) and incubated at room temperature for 1 hr. After washing away the remaining GMBS, 1 mM peptide solution was added onto the chip and the chip was incubated for 30 min. The peptide-bound sensor chip was placed in a QCM apparatus (Single-Q, ASONE), and 0.5 ml of PBS was added to the well. Various doses of Anxa1 were injected into the reaction chamber and the binding affinity (kd value) for each peptide was determined.

[2] = QCM, peptide-bound sensor chip, various doses of Anxa1, read-out: kd value

Kd (Anxa1; [2]) [nM]	SMILES	also measured
–	CC[C@H](C)[C@H](N)C(=O)N[C@@H](Cc1ccccc1)C(=O)N[C@@H](CC(C)C)C(=O)N[C@@H](CC(C)C)C(=O)N[C@@H](Cc1c[nH]c2ccccc12)C(=O)N[C@@H](CCC(N)=O)C(=O)N[C@@H](CCCNC(=N)N)C(=O)O [IF7, IFLLWQR] (H-IFLLWQR-OH; N-terminus and C-terminus assumed)	solubility [1]: poor solubility; stability ([1]; protease sensitivity): low stability
54.2	CC(C)C[C@@H](N)C(=O)N[C@H](CC(C)C)C(=O)N[C@H](CO)C(=O)N[C@H](Cc1c[nH]c2ccccc12)C(=O)N1CCC[C@@H]1C(=O)N[C@H](CO)C(=O)N[C@H](C)C(=O)O [dLLS7, L[D] L[D] S[D] W[D] P[D] S[D] A[D]] (H-[dL][dL][dS][dW][dP][dS][dA]-OH; N-terminus and C-terminus assumed)	–
31.2	CC(C)C[C@@H](N)C(=O)N[C@H](CCCNC(=N)N)C(=O)N[C@H](Cc1ccccc1)C(=O)N1CCC[C@@H]1C(=O)N[C@@H](C(=O)N[C@@H](C(=O)N[C@H](CC(C)C)C(=O)O)C(C)C)[C@H](C)O [dLRF7, L[D] R[D] F[D] P[D] T[D] V[D] L[D]] (H-[dL][dR][dF][dP][dT][dV][dL]-OH; N-terminus and C-terminus assumed)	–
298	CSCC[C@@H](N)C(=O)N1CCC[C@@H]1C(=O)N[C@@H](C(=O)N[C@H](CC(C)C)C(=O)N[C@@H](C(=O)N[C@H](Cc1ccccc1)C(=O)N[C@H](CCCNC(=N)N)C(=O)O)[C@H](C)O)[C@H](C)O [dMPT7, M[D] P[D] T[D] L[D] T[D] F[D] R[D]] (H-[dM][dP][dT][dL][dT][dF][dR]-OH; N-terminus and C-terminus assumed)	–
90.3	CC(C)C[C@@H](NC(=O)[C@@H](CC(C)C)NC(=O)[C@@H](CO)NC(=O)[C@H](NC(=O)[C@H]1CCCN1C(=O)[C@H](N)CO)[C@H](C)O)C(=O)N[C@H](Cc1ccccc1)C(=O)O [dSPT7, S[D] P[D] T[D] S[D] L[D] L[D] F[D]] (H-[dS][dP][dT][dS][dL][dL][dF]-OH; N-terminus and C-terminus assumed)	–
–	CC[C@@H](C)[C@@H](NC(=O)[C@H](N)[C@H](C)O)C(=O)N[C@@H](C(=O)N[C@H](Cc1c[nH]c2ccccc12)C(=O)N1CCC[C@@H]1C(=O)N[C@@H](C(=O)N[C@H](CCSC)C(=O)O)[C@H](C)O)[C@H](C)O [dTIT7, T[D] I[D] T[D] W[D] P[D] T[D] M[D]]	Kd (Anxa1; QCM method, dTIT7 and Anxa1, read-out: dissociation constant (Kd value)): 45.7 nM
